Values quoted from earlier work, collected in patent US8652520B2, “Combination tablet with chewable outer layer” (Vitalis LLC, priority 2007, dated 2014).

Assays:
[1] = risk of bleeding peptic ulcer, literature
[2] = tested on: anti-platelet activity of aspirin; details: co-administered with aspirin, literature

Compound	GI side effects among the NSAID agents [1]	anti-platelet activity of aspirin when given in conjunction [2]
O=C(O)Cc1ccccc1Nc1c(Cl)cccc1Cl [diclofenac]	least GI side effects	–
CC(C)Cc1ccc(C(C)C(=O)O)cc1 (stereo not drawn) [ibuprofen, 2-[4-(2-methylpropyl)phenyl]propanoic acid]	least GI side effects	decreased
